± gives the expanded uncertainty stated by the source.
Conditions: for thermal diffusivity: Optical interferometry; for speed of sound: Light diffraction method

## CCCCC [pentane]
306.16 K, Liquid
  thermal diffusivity: 7.18e-08 ± 3.7e-09 m2/s
308.14 K, Liquid
  speed of sound: 963.73 ± 5 m/s
318.45 K, Liquid
  speed of sound: 915.77 ± 4.7 m/s
323.16 K, Liquid
  thermal diffusivity: 6.84e-08 ± 3.6e-09 m2/s
328.23 K, Liquid
  speed of sound: 866.06 ± 4.5 m/s
338.02 K, Liquid
  speed of sound: 815.68 ± 4.2 m/s
338.39 K, Liquid
  thermal diffusivity: 6.42e-08 ± 3.3e-09 m2/s
348.32 K, Liquid
  speed of sound: 765.39 ± 4 m/s
348.68 K, Gas
  speed of sound: 189.16 ± 1.2 m/s
353.16 K, Liquid
  thermal diffusivity: 6.19e-08 ± 3.2e-09 m2/s
358.13 K, Liquid
  thermal diffusivity: 6.07e-08 ± 3.2e-09 m2/s
358.22 K, Gas
  speed of sound: 187.01 ± 1.2 m/s
359.03 K, Liquid
  speed of sound: 715.2 ± 3.7 m/s
362.37 K, Liquid
  thermal diffusivity: 5.91e-08 ± 3.1e-09 m2/s
367.9 K, Gas
  speed of sound: 185.11 ± 1.2 m/s
368.18 K, Liquid
  thermal diffusivity: 5.79e-08 ± 3e-09 m2/s
368.31 K, Liquid
  speed of sound: 667.88 ± 3.5 m/s
373.47 K, Liquid
  thermal diffusivity: 5.74e-08 ± 3e-09 m2/s
377.79 K, Gas
  speed of sound: 183.06 ± 1.1 m/s
378.2 K, Liquid
  thermal diffusivity: 5.69e-08 ± 3e-09 m2/s
379.04 K, Liquid
  speed of sound: 618.28 ± 3.2 m/s
383.42 K, Liquid
  thermal diffusivity: 5.53e-08 ± 2.9e-09 m2/s
388.15 K, Liquid
  thermal diffusivity: 5.45e-08 ± 2.8e-09 m2/s
388.18 K, Gas
  speed of sound: 178.8 ± 1.1 m/s
388.52 K, Liquid
  speed of sound: 571.45 ± 3 m/s
393.32 K, Liquid
  thermal diffusivity: 5.4e-08 ± 2.8e-09 m2/s
396.29 K, Liquid
  thermal diffusivity: 5.35e-08 ± 2.8e-09 m2/s
398.16 K, Liquid
  speed of sound: 529.46 ± 2.8 m/s
398.34 K, Gas
  speed of sound: 174.99 ± 1.1 m/s
399.16 K, Liquid
  thermal diffusivity: 5.24e-08 ± 2.7e-09 m2/s
403.33 K, Liquid
  thermal diffusivity: 5.16e-08 ± 2.7e-09 m2/s
406.96 K, Liquid
  speed of sound: 483.6 ± 2.6 m/s
408.14 K, Gas
  speed of sound: 169.99 ± 1.1 m/s
408.63 K, Liquid
  thermal diffusivity: 5.12e-08 ± 2.7e-09 m2/s
413.33 K, Liquid
  thermal diffusivity: 5.01e-08 ± 2.6e-09 m2/s
417.94 K, Liquid
  speed of sound: 428.66 ± 2.3 m/s
418.17 K, Gas
  speed of sound: 162.61 ± 1.1 m/s
418.39 K, Liquid
  thermal diffusivity: 4.93e-08 ± 2.6e-09 m2/s
423.55 K, Gas
  thermal diffusivity: 2.31e-07 ± 6.9e-09 m2/s
423.61 K, Liquid
  thermal diffusivity: 4.84e-08 ± 2.5e-09 m2/s
428.12 K, Gas
  thermal diffusivity: 2.14e-07 ± 6.4e-09 m2/s
428.17 K, Gas
  speed of sound: 155.41 ± 1 m/s
428.17 K, Liquid
  thermal diffusivity: 4.69e-08 ± 2.4e-09 m2/s
428.38 K, Liquid
  speed of sound: 382.43 ± 2.1 m/s
433.15 K, Gas
  thermal diffusivity: 1.92e-07 ± 5.8e-09 m2/s
433.19 K, Gas
  speed of sound: 150.86 ± 1 m/s
433.29 K, Liquid
  thermal diffusivity: 4.58e-08 ± 2.4e-09 m2/s
436.13 K, Gas
  thermal diffusivity: 1.77e-07 ± 5.3e-09 m2/s
436.19 K, Liquid
  thermal diffusivity: 4.49e-08 ± 2.3e-09 m2/s
438.21 K, Gas
  speed of sound: 146.71 ± 1 m/s
438.23 K, Liquid
  speed of sound: 327.33 ± 1.8 m/s
438.87 K, Gas
  thermal diffusivity: 1.64e-07 ± 4.9e-09 m2/s
439.21 K, Liquid
  thermal diffusivity: 4.43e-08 ± 2.3e-09 m2/s
442.09 K, Gas
  thermal diffusivity: 1.49e-07 ± 4.5e-09 m2/s
442.35 K, Liquid
  thermal diffusivity: 4.38e-08 ± 2.3e-09 m2/s
443.15 K, Gas
  speed of sound: 140.85 ± 0.98 m/s
445.16 K, Liquid
  thermal diffusivity: 4.34e-08 ± 2.3e-09 m2/s
445.19 K, Gas
  thermal diffusivity: 1.35e-07 ± 4.1e-09 m2/s
447.95 K, Gas
  speed of sound: 136.18 ± 0.96 m/s
448.08 K, Liquid
  thermal diffusivity: 4.2e-08 ± 2.2e-09 m2/s
448.25 K, Gas
  thermal diffusivity: 1.2e-07 ± 3.6e-09 m2/s
448.62 K, Liquid
  speed of sound: 267.2 ± 1.5 m/s
451.23 K, Gas
  thermal diffusivity: 1.08e-07 ± 3.2e-09 m2/s
451.38 K, Liquid
  thermal diffusivity: 4.08e-08 ± 2.1e-09 m2/s
453.26 K, Gas
  speed of sound: 130.15 ± 0.93 m/s
454.03 K, Gas
  thermal diffusivity: 9.78e-08 ± 2.9e-09 m2/s
455.2 K, Liquid
  thermal diffusivity: 3.84e-08 ± 2e-09 m2/s
457.04 K, Gas
  thermal diffusivity: 8.48e-08 ± 2.5e-09 m2/s
457.87 K, Liquid
  speed of sound: 209.66 ± 1.3 m/s
458.28 K, Gas
  speed of sound: 123.99 ± 0.91 m/s
458.4 K, Liquid
  thermal diffusivity: 3.55e-08 ± 1.8e-09 m2/s
460.05 K, Gas
  thermal diffusivity: 7.23e-08 ± 2.2e-09 m2/s
460.1 K, Liquid
  thermal diffusivity: 3.37e-08 ± 1.8e-09 m2/s
462.08 K, Gas
  thermal diffusivity: 5.64e-08 ± 1.7e-09 m2/s
463.16 K, Gas
  speed of sound: 116.39 ± 0.88 m/s
463.27 K, Liquid
  speed of sound: 170.65 ± 1.1 m/s
463.41 K, Liquid
  thermal diffusivity: 3.04e-08 ± 1.6e-09 m2/s
464.04 K, Gas
  thermal diffusivity: 4.16e-08 ± 1.2e-09 m2/s
466.12 K, Gas
  thermal diffusivity: 3.45e-08 ± 1e-09 m2/s
466.14 K, Liquid
  speed of sound: 145.22 ± 1 m/s
466.37 K, Liquid
  thermal diffusivity: 2.59e-08 ± 1.3e-09 m2/s
469.33 K, Liquid
  speed of sound: 111.31 ± 0.89 m/s
